# Experimental data from PMC11876601 (Molecular Systems Biology, 2025).
# Read-outs that look alike come from different tables or passages of the source.
# Columns and labels:
# 13 PDAC cell lines = assay: Phenotypic drug combination viability screen (ATPlite, 72 h), cell line panel; assay type: cell-based, human; details: for median AUC across all cell lines: single agent, 72 h
# Description: (§1) Cell viability was assessed by measuring ATP levels to indicate metabolic activity.
# (§2) Afterward, small amounts were transferred to 384-well intermediate plates (Greiner Bio-One GmbH, Germany). […] For drug combination screening, 1000 to 5000 cells were seeded into 384-well plates (CulturPlate™, Perkin Elmer, MA, USA) using a Multidrop™ Combi Reagent Dispenser (Thermo Scientific, MA, USA) in 50 µl medium per well 24 h prior to drug treatment (seeding densities see Appendix Table S1). […] The final DMSO concentration in each well was 0.2%. […] Eight wells per plate without library drug served as negative controls, and sixteen wells per plate containing 5 µM Staurosporine served as positive controls. Control plates not containing any drug were used to correct for incubation effects, and data quality was assessed by calculation of Z-prime of positive and negative controls according to1 Z-prime=1−3SDpos+3SDneg/[…] where SD is the standard deviation. […] Dose–response curves from the experimental and hypothetical data were compared, and shifts in AUC were used to describe combination effects (AUC∆ = AUChypothetical − AUCexperimental). […] Only combinations with R^2 > 0.8 in both conditions were considered in the synergy analysis.
# PSN-1 [1] = assay: cells; parameters: ATPlite luminescence viability of PDAC cell lines, 11-dose single-agent curves, 4-parameter fit; details: Homo sapiens, PSN1, 72 h, read-out: EC50 [nM]
# How it was run: (§3)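 Drug-combination screening used cells plated at 1000 to 5000 per well one day before treatment. Final DMSO was 0.2%. Each plate held untreated negative-control wells and 5 µM staurosporine positive-control wells.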
# Suit2-07 [2] = assay: cells; parameters: ATPlite luminescence viability of PDAC cell lines, 11-dose single-agent curves, 4-parameter fit; details: 72 h, read-out: EC50 [nM]
# How it was run: as §3
# Dan-G [3] = assay: cells; parameters: ATPlite luminescence viability of PDAC cell lines, 11-dose single-agent curves, 4-parameter fit; details: 72 h, read-out: EC50 [nM]
# How it was run: as §3
# MiaPaCa-2 [4] = assay: cells; parameters: ATPlite luminescence viability of PDAC cell lines, 11-dose single-agent curves, 4-parameter fit; details: Homo sapiens, MIA PaCa-2, 72 h, read-out: EC50 [nM]
# How it was run: as §3
# Capan-1 [5] = assay: cells; parameters: ATPlite luminescence viability of PDAC cell lines, 11-dose single-agent curves, 4-parameter fit; details: Homo sapiens, CAPAN-1, 72 h, read-out: EC50 [nM]
# How it was run: as §3
# Colo-357 [6] = assay: cells; parameters: ATPlite luminescence viability of PDAC cell lines, 11-dose single-agent curves, 4-parameter fit; details: Homo sapiens, COLO357, 72 h, read-out: EC50 [nM]
# How it was run: as §3
# FAMPAC [7] = assay: cells; parameters: ATPlite luminescence viability of PDAC cell lines, 11-dose single-agent curves, 4-parameter fit; details: 72 h, read-out: EC50 [nM]
# How it was run: as §3
# PANC-1 [8] = assay: cells; parameters: Viability of PDAC cell lines, ATPlite luminescence, 11-dose single-agent curve fit; details: Homo sapiens, PANC-1, 72 h, read-out: EC50 [nM]
# How it was run: (§4)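 screening used cells plated at 1000 to 5000 per well one day before treatment. Final DMSO was 0.2%. Each plate held untreated negative-control wells and 5 µM staurosporine positive-control wells.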
# PaTu-8988-T [9] = assay: cells; parameters: Viability of PDAC cell lines, ATPlite luminescence, 11-dose single-agent curve fit; details: Homo sapiens, PaTu 8988t, 72 h, read-out: EC50 [nM]
# How it was run: as §4
# HPDE [10] = assay: cells; parameters: Viability of PDAC cell lines, ATPlite luminescence, 11-dose single-agent curve fit; details: HPDE, 72 h, read-out: EC50 [nM]
# How it was run: as §4
# AsPC-1 [11] = assay: cells; parameters: Viability of PDAC cell lines, ATPlite luminescence, 11-dose single-agent curve fit; details: Homo sapiens, ASPC1, 72 h, read-out: EC50 [nM]
# How it was run: as §4
# BxPC-3 [12] = assay: cells; parameters: Viability of PDAC cell lines, ATPlite luminescence, 11-dose single-agent curve fit; details: Homo sapiens, BXPC-3, 72 h, read-out: EC50 [nM]
# How it was run: as §4
# HuP-T4 [13] = assay: cells; parameters: Viability of PDAC cell lines, ATPlite luminescence, 11-dose single-agent curve fit; details: Homo sapiens, HuP-T4, 72 h, read-out: EC50 [nM]
# How it was run: as §4
# PANC-1 [14] = assay: cells; parameters: ATPlite luminescence viability of PDAC cell lines, 11-dose single-agent curves, 4-parameter fit; details: Homo sapiens, PANC-1, 72 h, read-out: EC50 [nM]
# How it was run: as §3
# PaTu-8988-T [15] = assay: cells; parameters: ATPlite luminescence viability of PDAC cell lines, 11-dose single-agent curves, 4-parameter fit; details: Homo sapiens, PaTu 8988t, 72 h, read-out: EC50 [nM]
# How it was run: as §3
# HPDE [16] = assay: cells; parameters: ATPlite luminescence viability of PDAC cell lines, 11-dose single-agent curves, 4-parameter fit; details: HPDE, 72 h, read-out: EC50 [nM]
# How it was run: as §3
# AsPC-1 [17] = assay: cells; parameters: ATPlite luminescence viability of PDAC cell lines, 11-dose single-agent curves, 4-parameter fit; details: Homo sapiens, ASPC1, 72 h, read-out: EC50 [nM]
# How it was run: as §3
# BxPC-3 [18] = assay: cells; parameters: ATPlite luminescence viability of PDAC cell lines, 11-dose single-agent curves, 4-parameter fit; details: Homo sapiens, BXPC-3, 72 h, read-out: EC50 [nM]
# How it was run: as §3
# HuP-T4 [19] = assay: cells; parameters: ATPlite luminescence viability of PDAC cell lines, 11-dose single-agent curves, 4-parameter fit; details: Homo sapiens, HuP-T4, 72 h, read-out: EC50 [nM]
# How it was run: as §3
# PSN-1 [20] = assay: cells; parameters: Viability of PDAC cell lines, ATPlite luminescence, 11-dose single-agent curve fit; details: Homo sapiens, PSN1, 72 h, read-out: EC50 [nM]
# How it was run: as §4
# Suit2-07 [21] = assay: cells; parameters: Viability of PDAC cell lines, ATPlite luminescence, 11-dose single-agent curve fit; details: 72 h, read-out: EC50 [nM]
# How it was run: as §4
# Dan-G [22] = assay: cells; parameters: Viability of PDAC cell lines, ATPlite luminescence, 11-dose single-agent curve fit; details: 72 h, read-out: EC50 [nM]
# How it was run: as §4
# MiaPaCa-2 [23] = assay: cells; parameters: Viability of PDAC cell lines, ATPlite luminescence, 11-dose single-agent curve fit; details: Homo sapiens, MIA PaCa-2, 72 h, read-out: EC50 [nM]
# How it was run: as §4
# Capan-1 [24] = assay: cells; parameters: Viability of PDAC cell lines, ATPlite luminescence, 11-dose single-agent curve fit; details: Homo sapiens, CAPAN-1, 72 h, read-out: EC50 [nM]
# How it was run: as §4
# Colo-357 [25] = assay: cells; parameters: Viability of PDAC cell lines, ATPlite luminescence, 11-dose single-agent curve fit; details: Homo sapiens, COLO357, 72 h, read-out: EC50 [nM]
# How it was run: as §4
# FAMPAC [26] = assay: cells; parameters: Viability of PDAC cell lines, ATPlite luminescence, 11-dose single-agent curve fit; details: 72 h, read-out: EC50 [nM]
# How it was run: as §4
# [27] = tested on: HPDE (immortalized pancreatic duct cell line); assay: Drug combination viability screen (ATPlite, 72 h); assay type: cell-based, human; details: single agent, HPDE;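 also: area under vehicle-normalized viability curve scaled 0 to 100 percent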
# Description: as §1, §2
Compound,EC50 (PSN-1 [1]),EC50 (Suit2-07 [2]),EC50 (Dan-G [3]),EC50 (MiaPaCa-2 [4]),EC50 (Capan-1 [5]),EC50 (Colo-357 [6]),EC50 (FAMPAC [7]),EC50 (PANC-1 [8]),EC50 (HuP-T4 [13]),median AUC across all cell lines (13 PDAC cell lines),EC50 (PANC-1 [14]),EC50 (PaTu-8988-T [15]),EC50 (HPDE [16]),EC50 (AsPC-1 [17]),EC50 (BxPC-3 [18]),EC50 (HuP-T4 [19]),AUC [27],further results
Cn1ncnc1[C@H]1c2n[nH]c(=O)c3cc(F)cc(c23)N[C@@H]1c1ccc(F)cc1 [Talazoparib],405 nM,113 nM,268 nM,825 nM,507 nM,355 nM,693 nM,1590 nM,6060 nM,–,–,–,–,–,–,–,–,"number of cell lines with synergy with GEM (13 PDAC cell lines; of 13 cell lines, Bliss model): two; EC50 (PaTu-8988-T [9]): > 10000 nM; EC50 (HPDE [10]): > 10000 nM; EC50 (AsPC-1 [11]): 2650 nM; EC50 (BxPC-3 [12]): 2960 nM"
O=C(Cc1ccc(-c2ccc(OCCN3CCOCC3)cc2)cn1)NCc1ccccc1 [Tirbanibulin],30.7 nM,45 nM,31.9 nM,26.3 nM,43.4 nM,37.7 nM,33.1 nM,–,10300 nM,60%,28.6 nM,33 nM,39.9 nM,41.9 nM,29.9 nM,–,–,–
COc1c(OCCCN2CCOCC2)ccc2c1N=C(NC(=O)c1cnc(N)nc1)N1CCN=C21 [Copanlisib],787 nM,108 nM,29.8 nM,65.6 nM,21.6 nM,17.6 nM,1110 nM,–,–,< 70%,58.8 nM,101 nM,283 nM,175 nM,113 nM,48 nM,–,–
CO[C@H]1C[C@@H]2CC[C@@H](C)[C@@](O)(O2)C(=O)C(=O)N2CCCC[C@H]2C(=O)O[C@H]([C@H](C)C[C@@H]2CC[C@@H](OC(=O)C(C)(CO)CO)[C@H](OC)C2)CC(=O)[C@H](C)/C=C(\C)[C@@H](O)[C@@H](OC)C(=O)[C@H](C)C[C@H](C)/C=C/C=C/C=C/1C [Temsirolimus],–,–,–,–,–,–,–,29.2 nM,30.2 nM,> 80%,–,–,–,–,–,–,–,EC50 (PSN-1 [20]): 0.57 nM; EC50 (Suit2-07 [21]): 0.35 nM; EC50 (PaTu-8988-T [9]): 0.57 nM; EC50 (Dan-G [22]): 1.3 nM; EC50 (HPDE [10]): 0.19 nM; EC50 (MiaPaCa-2 [23]): 2.17 nM; EC50 (Capan-1 [24]): 0.08 nM; EC50 (Colo-357 [25]): 4160 nM; EC50 (AsPC-1 [11]): 1.54 nM; EC50 (BxPC-3 [12]): 0.06 nM; EC50 (FAMPAC [26]): 0.13 nM
CN(C)C/C=C/C(=O)Nc1cc2c(Nc3ccc(F)c(Cl)c3)ncnc2cc1O[C@H]1CCOC1 [Afatinib],> 10000 nM,9950 nM,1.59 nM,1700 nM,4990 nM,1.6 nM,> 10000 nM,–,–,–,6660 nM,2740 nM,22.8 nM,> 10000 nM,6420 nM,> 10000 nM,< 60%,–
COc1cc2ncnc(Nc3ccc(F)c(Cl)c3)c2cc1NC(=O)/C=C/CN1CCCCC1 [Dacomitinib],3850 nM,1730 nM,2440 nM,2210 nM,10300 nM,909 nM,3270 nM,–,–,–,3920 nM,2200 nM,46.5 nM,> 10000 nM,> 10000 nM,> 10000 nM,< 60%,–
O=C(c1ccc(F)c(F)c1Nc1ccc(I)cc1F)N1CC(O)([C@@H]2CCCCN2)C1 [Cobimetinib],12.3 nM,752 nM,> 10000 nM,6.21 nM,8510 nM,5300 nM,39.5 nM,–,–,< 70%,> 10000 nM,5570 nM,4490 nM,13.7 nM,101 nM,> 10000 nM,–,–
O=C(/C=C\n1cnc(-c2cc(C(F)(F)F)cc(C(F)(F)F)c2)n1)NNc1cnccn1 [Selinexor],64.2 nM,61 nM,113 nM,190 nM,226 nM,190 nM,97 nM,182 nM,–,–,–,116 nM,37.7 nM,229 nM,114 nM,1200 nM,< 60%,–
CCOc1cc2ncc(C#N)c(Nc3ccc(OCc4ccccn4)c(Cl)c3)c2cc1NC(=O)/C=C/CN(C)C [Neratinib],> 10000 nM,1400 nM,7080 nM,863 nM,6740 nM,1280 nM,1320 nM,8210 nM,–,–,–,835 nM,60.8 nM,816 nM,1210 nM,> 10000 nM,< 60%,–
CC(=O)Nc1cccc(-n2c(=O)n(C3CC3)c(=O)c3c(Nc4ccc(I)cc4F)n(C)c(=O)c(C)c32)c1 [Trametinib],5.34 nM,8.92 nM,1.4 nM,3.92 nM,–,–,9.21 nM,45.6 nM,8.2 nM,< 70%,–,7.98 nM,7 nM,3.02 nM,13.1 nM,–,–,EC50 (Capan-1 [24]): 88.1 nM; EC50 (Colo-357 [25]): 1160 nM
